Counter-ions that a name gives are not always drawn. Activity calls are given as the source filed them. The rule behind the calls is not given here.
Tests used:
MCF7 [1] = test: Cytotoxicity against human MCF7 cells after 18 hrs by MTT assay; type: functional, cell-based; details: MCF7, 18 h
MDA-MB-231 = test: Cytotoxicity against human MDA-MB-231 cells after 18 hrs by MTT assay; type: functional, cell-based; details: MDA-MB-231, 18 h
Ishikawa = test: Cytotoxicity against human Ishikawa cells after 18 hrs by MTT assay; type: functional, cell-based
DU-145 = test: Cytotoxicity against human DU145 cells after 18 hrs by MTT assay; type: functional, cell-based; details: DU-145, 18 h
MCF7 [2] = test: Induction of apoptosis in human MCF7 cells at 5 to 10 uM after 24 hrs using annexin V-propidium iodide staining by flow cytometry relative to control; type: functional, cell-based
MCF7 [3] = test: Cell cycle arrest in human MCF7 cells assessed as accumulation at G0/G1 phase at 5 to 10 uM after 24 hrs using […] by flow cytometry relative to control; type: functional, cell-based
MCF7 [4] = test: Antitumor activity against human MCF7 cells xenografted in mouse assessed as tumor volume regression at 8 to 16 mg/kg, po for 30 days; type: functional, organism-based
HEK293 = test: Cytotoxicity against HEK293 cells after 18 hrs by MTT assay; type: cell-based; details: human, hek293, 18 h

Structure (SMILES): COc1cccc2c1OC[C@H](Cc1ccc(OCCN3CCCC3)cc1)N(S(=O)(=O)c1ccc(C)cc1)C2
- IC50 (MCF7 [1]): > 50 µM
- IC50 (MDA-MB-231): > 50 µM
- IC50 (Ishikawa): > 50 µM
- IC50 (DU-145): > 50 µM

Structure (SMILES): CCN(CC)CCOc1ccc(C[C@H]2COc3c(cccc3OC)CN2S(=O)(=O)c2ccc(C)cc2)cc1
- IC50 (MCF7 [1]): > 50 µM
- IC50 (MDA-MB-231): > 50 µM
- IC50 (Ishikawa): > 50 µM
- IC50 (DU-145): > 50 µM

Structure (SMILES): CC/C(=C(\c1ccccc1)c1ccc(OCCN(C)C)cc1)c1ccccc1 [TAMOXIFEN CITRATE]
- IC50 (MCF7 [1]): 10.2 µM
- IC50 (MDA-MB-231): 12.3 µM
- IC50 (Ishikawa): 12.5 µM
- IC50 (DU-145): 15.2 µM

Structure (SMILES): Cc1ccc(S(=O)(=O)N2Cc3ccccc3OC[C@@H]2C)cc1
- IC50 (MCF7 [1]): > 50 µM
- IC50 (MDA-MB-231): > 50 µM
- IC50 (Ishikawa): > 50 µM
- IC50 (DU-145): > 50 µM

Structure (SMILES): COc1ccc2c(c1)OC[C@H](Cc1ccc(OCCN(C)C)cc1)N(S(=O)(=O)c1ccc(C)cc1)C2
- IC50 (MCF7 [1]): > 50 µM
- IC50 (MDA-MB-231): > 50 µM
- IC50 (Ishikawa): > 50 µM
- IC50 (DU-145): > 50 µM

Structure (SMILES): COc1ccc2c(c1)OC[C@H](Cc1ccc(OCCN3CCOCC3)cc1)N(S(=O)(=O)c1ccc(C)cc1)C2
- IC50 (MCF7 [1]): > 50 µM
- IC50 (MDA-MB-231): > 50 µM
- IC50 (Ishikawa): > 50 µM
- IC50 (DU-145): > 50 µM

Structure (SMILES): Cc1ccc(S(=O)(=O)N2Cc3ccccc3OC[C@H]2Cc2ccccc2)cc1
- IC50 (MCF7 [1]): > 50 µM
- IC50 (MDA-MB-231): > 50 µM
- IC50 (Ishikawa): > 50 µM
- IC50 (DU-145): > 50 µM

Structure (SMILES): Cc1ccc(S(=O)(=O)N2Cc3ccccc3OCC2Cc2ccc(OCCN3CCOCC3)cc2)cc1 (stereo unspecified)
- IC50 (MCF7 [1]): > 50 µM
- IC50 (MDA-MB-231): > 50 µM
- IC50 (Ishikawa): > 50 µM
- IC50 (DU-145): > 50 µM

Structure (SMILES): Cc1ccc(S(=O)(=O)N2Cc3ccccc3OC[C@@H]2CC(C)C)cc1
- IC50 (MCF7 [1]): > 50 µM
- IC50 (MDA-MB-231): > 50 µM
- IC50 (Ishikawa): > 50 µM
- IC50 (DU-145): > 50 µM

Structure (SMILES): CCN(CC)CCOc1ccc(C[C@H]2COc3ccccc3CN2S(=O)(=O)c2ccc(C)cc2)cc1
- IC50 (MCF7 [1]): 6.53 µM
- IC50 (MDA-MB-231): 17.4 µM
- IC50 (Ishikawa): 22.6 µM
- IC50 (DU-145): 23 µM
- Activity (MCF7 [2]): Active
- Activity (MCF7 [3]): Active
- Activity (MCF7 [4]): Active

Structure (SMILES): COc1ccc2c(c1)OC[C@H](Cc1ccc(OCCN3CCCC3)cc1)N(S(=O)(=O)c1ccc(C)cc1)C2
- IC50 (MCF7 [1]): > 50 µM
- IC50 (MDA-MB-231): > 50 µM
- IC50 (Ishikawa): > 50 µM
- IC50 (DU-145): > 50 µM

Structure (SMILES): COc1cccc2c1OC[C@H](Cc1ccc(OCCN(C)C)cc1)N(S(=O)(=O)c1ccc(C)cc1)C2
- IC50 (MCF7 [1]): > 50 µM
- IC50 (MDA-MB-231): > 50 µM
- IC50 (Ishikawa): > 50 µM
- IC50 (DU-145): > 50 µM

Structure (SMILES): COc1ccc2c(c1)OC[C@H](Cc1ccc(OCCN3CCCCC3)cc1)N(S(=O)(=O)c1ccc(C)cc1)C2
- IC50 (MCF7 [1]): > 50 µM
- IC50 (MDA-MB-231): > 50 µM
- IC50 (Ishikawa): > 50 µM
- IC50 (DU-145): > 50 µM

Structure (SMILES): Cc1ccc(S(=O)(=O)N2Cc3ccccc3OC[C@@H]2C(C)C)cc1
- IC50 (MCF7 [1]): > 50 µM
- IC50 (MDA-MB-231): > 50 µM
- IC50 (Ishikawa): > 50 µM
- IC50 (DU-145): > 50 µM

Structure (SMILES): Cc1ccc(S(=O)(=O)N2Cc3ccccc3OC[C@@H]2Cc2ccc(OCCN3CCCC3)cc2)cc1
- IC50 (MCF7 [1]): 9.34 µM
- IC50 (MDA-MB-231): 13 µM
- IC50 (Ishikawa): 23.8 µM
- Activity (HEK293): Non-toxic
- IC50 (DU-145): 30 µM

Structure (SMILES): COc1cccc2c1OC[C@H](Cc1ccc(OCCN3CCOCC3)cc1)N(S(=O)(=O)c1ccc(C)cc1)C2
- IC50 (MCF7 [1]): > 50 µM
- IC50 (MDA-MB-231): > 50 µM
- IC50 (Ishikawa): > 50 µM
- IC50 (DU-145): > 50 µM

Structure (SMILES): Cc1ccc(S(=O)(=O)N2Cc3ccccc3OC[C@@H]2Cc2c[nH]c3ccccc23)cc1
- IC50 (MCF7 [1]): > 50 µM
- IC50 (MDA-MB-231): > 50 µM
- IC50 (Ishikawa): > 50 µM
- IC50 (DU-145): > 50 µM

Structure (SMILES): CCC(C)[C@H]1COc2ccccc2CN1S(=O)(=O)c1ccc(C)cc1 (stereo partly specified)
- IC50 (MCF7 [1]): > 50 µM
- IC50 (MDA-MB-231): > 50 µM
- IC50 (Ishikawa): > 50 µM
- IC50 (DU-145): > 50 µM

Structure (SMILES): COc1cccc2c1OC[C@H](Cc1ccc(OCCN3CCCCC3)cc1)N(S(=O)(=O)c1ccc(C)cc1)C2
- IC50 (MCF7 [1]): > 50 µM
- IC50 (MDA-MB-231): > 50 µM
- IC50 (Ishikawa): > 50 µM
- IC50 (DU-145): > 50 µM

Structure (SMILES): Cc1ccc(S(=O)(=O)N2Cc3ccccc3OC[C@@H]2Cc2ccc(O)cc2)cc1
- IC50 (MCF7 [1]): 29.1 µM
- IC50 (MDA-MB-231): > 50 µM
- IC50 (Ishikawa): 34 µM

Structure (SMILES): COc1cccc2c1OC[C@H](Cc1ccc(OCCN3CCCCCC3)cc1)N(S(=O)(=O)c1ccc(C)cc1)C2
- IC50 (MCF7 [1]): > 50 µM
- IC50 (MDA-MB-231): > 50 µM
- IC50 (Ishikawa): > 50 µM
- IC50 (DU-145): > 50 µM

Structure (SMILES): Cc1ccc(S(=O)(=O)N2Cc3ccccc3OC[C@@H]2Cc2ccccc2)cc1
- IC50 (MCF7 [1]): > 50 µM
- IC50 (MDA-MB-231): > 50 µM
- IC50 (Ishikawa): > 50 µM
- IC50 (DU-145): > 50 µM

Source: ChEMBL document CHEMBL1153141, “Anti-tumor activity of a new series of benzoxazepine derivatives in breast cancer” (Bioorg Med Chem Lett, 2010)
